Tests used:
Format in all cases: cell-based
[1] = test system: coronary artery smooth muscle cells (CASMC); assay: Cell proliferation and viability assays (CyQuant, CellTiter-Glo, CellTiter 96), CASMC (Example 5); conditions: 48 hours
Text: Multiple assays were used to test a variety of cellular properties expressed after exposure of different cells types to 5,6-dihydroxy-hexan-2-one. A cell proliferation assay available under the trade designation CyQuant from Invitrogen Corporation (Carlsbad, Calif.) determines the density of cells in culture by using a green fluorescent dye which fluoresces when bound to cellular nucleic acids. The amount of nucleic acid present is proportional to the amount of living cells in culture. […]
The amount of ATP present is proportional to the measured amount of a luminescent signal and therefore the amount of viable cells. […] The absorbance read is proportional to the amount of metabolic activity present in the cells.
Normal human dermal fibroblast (NHDF) cells and coronary artery smooth muscle cells (CASMC) in culture were exposed to 5,6-dihydroxy-hexan-2-one at concentrations of 10 microgram/ml, 1 mg/ml, and 10 mg/ml, for 48 hours, after which the cell culture wells were analyzed for cell proliferation and viability. […] FIG. 17 is a graphical representation of fibroblast cell numbers measured after 48 hours exposure to different concentrations of 5,6-dihydroxy-hexan-2-one. FIG. 18 is a graphical representation of smooth muscle cell numbers measured after 48 hours exposure to different concentrations of 5,6-dihydroxy-hexan-2-one. […]

[2] = test system: Normal Human Dermal Fibroblast (NHDF) cells; assay: Cell migration into scraped monolayer, NHDF (Example 5); conditions: 1 and 10 mg/ml, 48 hours exposure then 72 hours growth
Protocol: (§1) In a similar manner, cell migration was explored in vitro by scraping the cell monolayer and culturing the cells in the presence of 5,6-dihydroxy-hexan-2-one at concentrations of 1 mg/ml and 10 mg/ml. FIGS. 20(a)-(l) are pictures that visually display the migration of coronary artery smooth muscle cells (CASMC) (FIGS. 20(a)-(f)) and normal human dermal fibroblast (NHDF) cells (FIGS. 20(g)-(l)) exposed to various concentrations of 5,6-dihydroxy-hexan-2-one after 48 hours exposure, then cultured an additional 72 hours after removal of the 5,6-dihydroxy-hexan-2-one as described in Example 5. Specifically, FIGS. 20(a) and (b) represent the CASMC control at time zero and 72 hours, respectively; FIGS. 20(c) and (d) represent CASMC (10 mg/ml) at time zero and 72 hours, respectively; and FIGS. 20(e) and (f) represent CASMC (1 mg/ml) at time zero and 72 hours, respectively. FIGS. 20(g) and (h) represent the NHDF cell control at time zero and 72 hours, respectively; FIGS. 20(i) and (j) represent NHDF cells (10 mg/ml) at time zero and 72 hours, respectively; and FIGS. 20(k) and (l) represent NHDF cells (1 mg/ml) at time zero and 72 hours, respectively.
(§2) Cell migration judged by the ability of cells to repopulate the scraped “acellular” space over time indicated no microscopically identifiable effect by the agent at the concentrations tested. […]

[3] = test system: human umbilical vein endothelial cells (HUVEC); assay: CyQuant cell proliferation after 48 hour exposure, HUVEC (Example 6); conditions: for cell proliferation: 48 hour exposure
Protocol: (§3) Evaluation of the effects of 5,6-dihydroxy-hexan-2-one on human umbilical vein endothelial cells (HUVEC) and Glioblastoma/Astrocytoma cells U87 cellular proliferation and migration during 120 hours following 48 hour exposure to 5,6-dihydroxy-hexan-2-one at concentration of 10 mg/ml, 1 mg/ml, 100 micrograms/ml. Controls were cells not exposed to the agent.
(§4) In order to further explore the effects of this compound, experiments to evaluate the dose-effect response on the antiproliferative effect and on cell migration were conducted on two cell lines, human umbilical vein endothelial cells (HUVEC) and Glioblastoma/Astrocytoma cells (U87), over 120 hours after 48 hours of exposure to the compound.
A cell proliferation assay available under the trade designation CyQuant from Invitrogen Corporation (Carlsbad, Calif.) determines the density of cells in culture by using a green fluorescent dye which fluoresces when bound to cellular nucleic acids.

[4] = test system: coronary artery smooth muscle cells (CASMC); assay: Cell migration into scraped monolayer, CASMC (Example 5); conditions: 1 and 10 mg/ml, 48 hours exposure then 72 hours growth
Protocol: as §1, §2

[5] = test system: human Glioblastoma/Astrocytoma U87 cells; assay: Cell migration after 48 hours exposure, U87 (Example 6); conditions: U87, 10 mg/ml and 1 mg/ml
Protocol: as §3, §4
FIGS. 24(a)-(l) are pictures that visually display the migration over time of human Glioblastoma/Astrocytoma U87 cells after 48 hours exposure to various concentrations of 5,6-dihydroxy-hexan-2-one. Specifically, FIGS. 24(a)-(d) represent the control, FIGS. 24(e)-(h) represent 10 mg/ml, and FIGS. 24(i)-(l) represent 1 mg/ml 5,6-dihydroxy-hexan-2-one. FIGS. 24(a), (e), and (i) represent migration after 2 hours; FIGS. 24(b), (f), and (j) represent migration after 14 hours; FIGS. 24(c), (g), and (k) represent migration after 20 hours; and FIGS. […], (h), and (l) represent migration after 48 hours.

CC(=O)CCC(O)CO (centres unmarked) [5,6-dihydroxy-hexan-2-one]
cell proliferation ([1]; 10 mg/ml): inhibition of cell proliferation
cell proliferation ([1]; other concentrations (10 microgram/ml, 1 mg/ml)): did not show this effect
cell migration [2]: not affected
cell proliferation ([3]; 10 mg/ml): antiproliferative effects
time after withdrawal at which inhibitory effect was still observed ([3]; 10 mg/ml, after 48 hour exposure): ≥ 120 h
cell proliferation ([3]; lowest concentration evaluated (100 micrograms/ml)): no antiproliferative effects
cell migration [4]: not affected
cell migration [5]: did not shown differences

— US20090061515A1, “Methods of inhibiting or suppressing cellular proliferation” (priority 2007, published 2009)
